{"source": "ChEMBL document CHEMBL5247592", "about": "“Discovery of novel VEGFR-2-PROTAC degraders based on the localization of lysine residues via recruiting VHL for the treatment of gastric cancer” (Eur J Med Chem, 2022)", "key": {"HGC-27 [1]": {"test_system": "HGC-27", "test": "Induction of apoptosis in human HGC-27 cells assessed as late apoptotic cells at 0.1 uM incubated for 24 hrs by Annexin V-FITC/PI staining based analysis (reference value: 3%)", "assay_type": "functional"}, "HGC-27 [2]": {"test_system": "HGC-27", "test": "Inhibition of cell migration in human HGC-27 cells assessed as suppression of cell migration at 3.3 uM incubated for 6 hrs by wound healing assay relative to control", "assay_type": "functional"}, "HGC-27 [3]": {"test_system": "HGC-27", "test": "Induction of cell cycle arrest in human HGC-27 cells assessed as G2/M phase cells at 3.33 uM incubated for 24 hrs by PI staining based flow cytometric analysis (reference value: 13.3%)", "assay_type": "functional"}, "HGC-27 [4]": {"test_system": "HGC-27", "test": "Induction of apoptosis in human HGC-27 cells assessed as viable cells at 0.033 uM incubated for 24 hrs by Annexin V-FITC/PI staining based analysis (reference value: 95.3%)", "assay_type": "functional", "details": "read-out: Activity"}, "HGC-27 [5]": {"test_system": "HGC-27", "test": "Inhibition of cell migration in human HGC-27 cells assessed as suppression of cell migration at 1 uM incubated for 6 hrs by wound healing assay relative to control", "assay_type": "functional"}, "HGC-27 [6]": {"test_system": "HGC-27", "test": "Inhibition of cell migration in human HGC-27 cells measured upto 24 hrs by wound healing assay", "assay_type": "functional, cell-based", "details": "dose 0.033-3.33 µM"}, "HGC-27 [7]": {"test_system": "HGC-27", "test": "Induction of cell cycle arrest in human HGC-27 cells assessed as G0/G1 phase cells at 3.33 uM incubated for 24 hrs by PI staining based flow cytometric analysis (reference value: 47.4%)", "assay_type": "functional"}, "HGC-27 [8]": {"test_system": "HGC-27", "test": "Induction of apoptosis in human HGC-27 cells assessed as necrotic cells at 3.3 uM incubated for 24 hrs by Annexin V-FITC/PI staining based analysis (reference value: 0.65 %)", "assay_type": "functional"}, "[9]": {"target": "T1, von Hippel-Lindau disease tumor suppressor/Vascular endothelial growth factor receptor 2 (Homo sapiens, UniProt P35968+P40337)", "test": "PROTAC activity at VHL/VEGFR2 in human HGC-27 cells assessed as residual activity by measuring VEGFR2 expression level at 1 uM incubated for 24 hrs followed by compound washout and measured after 8 hrs by Western blot analysis relative to control", "assay_type": "cell-based"}, "HGC-27 [10]": {"test_system": "HGC-27", "test": "Inhibition of colony formation in human HGC-27 cells at 1 to 3.33 uM incubated for 8 days by crystal violet staining based analysis relative to control", "assay_type": "functional", "details": "dose 1-3.33 µM, time 8 day"}, "[11]": {"test": "Effect on VEGFR2 mRNA expression in human HGC-27 cells at 3.33 uM incubated for 24 hrs by qPCR analysis relative to control", "assay_type": "functional"}, "HGC-27 [12]": {"test_system": "HGC-27", "test": "Inhibition of colony formation in human HGC-27 cells incubated for 8 days by crystal violet staining based analysis", "assay_type": "functional, cell-based", "details": "dose 0.033-3.33 µM, time 8.0 day"}, "HGC-27 [13]": {"test_system": "HGC-27", "test": "Induction of cell cycle arrest in human HGC-27 cells assessed as G0/G1 phase cells at 0.33 uM incubated for 24 hrs by PI staining based flow cytometric analysis (reference value: 47.4%)", "assay_type": "functional"}, "HGC-27 [14]": {"test_system": "HGC-27", "test": "Induction of cell cycle arrest in human HGC-27 cells assessed as S phase cells at 0.1 uM incubated for 24 hrs by PI staining based flow cytometric analysis (reference value: 26.4%)", "assay_type": "functional"}, "[15]": {"test": "Cytotoxicity against HEK293T cells assessed as inhibition of cell growth incubated for 72 hrs by MTT assay", "assay_type": "toxicity, cell-based, HEK-293T", "details": "human"}, "[16]": {"target": "T1, von Hippel-Lindau disease tumor suppressor/Vascular endothelial growth factor receptor 2", "test": "PROTAC activity at VHL/VEGFR2 in human HGC-27 cells assessed as reduction in VEGFR2 protein level by measuring maximal efficacy at 0.15 uM incubated for 24 hrs by Western blot analysis relative to control", "assay_type": "cell-based"}, "HGC-27 [17]": {"test_system": "HGC-27", "test": "Induction of apoptosis in human HGC-27 cells assessed as early apoptotic cells at 1 uM incubated for 24 hrs by Annexin V-FITC/PI staining based analysis (reference value: 1.7 %)", "assay_type": "functional"}, "HGC-27 [18]": {"test_system": "HGC-27", "test": "Induction of cell cycle arrest in human HGC-27 cells assessed as S phase cells at 0.033 uM incubated for 24 hrs by PI staining based flow cytometric analysis (reference value: 26.4%)", "assay_type": "functional"}, "HGC-27 [19]": {"test_system": "HGC-27", "test": "Antiinvasive activity in human HGC-27 cells assessed as reduction in number of invasive cells at 0.033 uM incubated for 24 hrs by transwell invasion assay (reference value: 118)", "assay_type": "functional"}, "HGC-27 [20]": {"test_system": "HGC-27", "test": "Antiinvasive activity in human HGC-27 cells assessed as reduction in number of invasive cells at 0.33 uM incubated for 24 hrs by transwell invasion assay (reference value: 118)", "assay_type": "functional"}, "[21]": {"target": "T1, von Hippel-Lindau disease tumor suppressor/Vascular endothelial growth factor receptor 2", "test": "PROTAC activity at VHL/VEGFR2 in human HGC-27 cells assessed as […] at 1 uM measured upto 24 hrs in the presence of cycloheximide by Western blot analysis", "assay_type": "cell-based"}, "HGC-27 [22]": {"test_system": "HGC-27", "test": "Inhibition of cell migration in human HGC-27 cells assessed as suppression of cell migration at 3.3 uM incubated for 24 hrs by wound healing assay relative to control", "assay_type": "functional"}, "HGC-27 [23]": {"test_system": "HGC-27", "test": "Induction of apoptosis in human HGC-27 cells assessed as necrotic cells at 0.33 uM incubated for 24 hrs by Annexin V-FITC/PI staining based analysis (reference value: 0.65 %)", "assay_type": "functional"}, "[24]": {"test": "Effect on VEGFR2 mRNA expression in human HGC-27 cells at 0.33 uM incubated for 24 hrs by qPCR analysis relative to control", "assay_type": "functional"}, "[25]": {"test": "Effect on VEGFR2 mRNA expression in human HGC-27 cells at 1 uM incubated for 24 hrs by qPCR analysis relative to control", "assay_type": "functional"}, "[26]": {"target": "T1, von Hippel-Lindau disease tumor suppressor/Vascular endothelial growth factor receptor 2", "test": "PROTAC activity at VHL/VEGFR2 in HUVEC cells assessed as reduction in VEGFR2 protein level incubated for 24 hrs by Western blot analysis", "assay_type": "cell-based"}, "HGC-27 [27]": {"test_system": "HGC-27", "test": "Induction of apoptosis in human HGC-27 cells assessed as early apoptotic cells at 0.1 uM incubated for 24 hrs by Annexin V-FITC/PI staining based analysis (reference value: 1.7 %)", "assay_type": "functional"}, "HGC-27 [28]": {"test_system": "HGC-27", "test": "Induction of cell cycle arrest in human HGC-27 cells assessed as accumulation of cells at G2/M phase incubated for 24 hrs by PI staining based flow cytometric analysis", "assay_type": "functional", "details": "dose 0.033-3.33 µM"}, "[29]": {"target": "T1, von Hippel-Lindau disease tumor suppressor/Vascular endothelial growth factor receptor 2", "test": "PROTAC activity at VHL/VEGFR2 in human HGC-27 cells assessed as induction of VEGFR2 degradation at 1 uM measured after 12 hrs by Western blot analysis relative to control", "assay_type": "cell-based"}, "[30]": {"target": "T1, von Hippel-Lindau disease tumor suppressor/Vascular endothelial growth factor receptor 2", "test": "PROTAC activity at VHL/VEGFR2 in HUVEC cells assessed as reduction in VEGFR2 protein level by measuring maximal efficacy at 0.007 to 10 uM incubated for 24 hrs by Western blot analysis relative to control", "assay_type": "cell-based", "details": "dose 0.007-10 µM"}, "HGC-27 [31]": {"test_system": "HGC-27", "test": "Induction of cell cycle arrest in human HGC-27 cells assessed as S phase cells at 3.33 uM incubated for 24 hrs by PI staining based flow cytometric analysis (reference value: 26.4%)", "assay_type": "functional"}, "HGC-27 [32]": {"test_system": "HGC-27", "test": "Induction of cell cycle arrest in human HGC-27 cells assessed as G0/G1 phase cells at 0.033 uM incubated for 24 hrs by PI staining based flow cytometric analysis (reference value: 47.4%)", "assay_type": "functional"}, "HGC-27 [33]": {"test_system": "HGC-27", "test": "Induction of cell cycle arrest in human HGC-27 cells assessed as G2/M phase cells at 0.1 uM incubated for 24 hrs by PI staining based flow cytometric analysis (reference value: 13.3%)", "assay_type": "functional"}, "HGC-27 [34]": {"test_system": "HGC-27", "test": "Inhibition of cell migration in human HGC-27 cells at 0.033 to 3.33 uM by wound healing assay", "assay_type": "functional, cell-based", "details": "dose 0.033-3.33 µM, time <= 24.0 hrs, TDE = time-dependent effect"}}, "note": "Calls of active or inactive are those of the source. The rule behind the calls is not given here."}
{"smiles": "Cc1ccc(NC(=O)Cn2cc(-c3ccc4c(NC(=O)c5ccc(NC(=O)CCCCCCCCC(=O)N[C@H](C(=O)N6C[C@H](O)C[C@H]6C(=O)NCc6ccc(-c7scnc7C)cc6)C(C)(C)C)cc5)n[nH]c4c3)cn2)cc1C(F)(F)F", "values": [{"measurement": "Activity", "setting": "HGC-27 [1]", "value": 4.2, "unit": "%"}, {"measurement": "inhibition at 3.3 µM", "setting": "HGC-27 [2]", "value": 12.3, "unit": "%"}, {"measurement": "Activity", "setting": "HGC-27 [3]", "value": 56.8, "unit": "%"}, {"measurement": "viability at 0.033 µM", "setting": "HGC-27 [4]", "value": 93, "unit": "%"}, {"measurement": "inhibition at 1 µM", "setting": "HGC-27 [5]", "value": 11.7, "unit": "%"}, {"measurement": "inhibition", "setting": "HGC-27 [6]", "value": "Dose-Dependent Effect"}, {"measurement": "Activity", "setting": "HGC-27 [7]", "value": 14.1, "unit": "%"}, {"measurement": "Activity", "setting": "HGC-27 [8]", "value": 0.52, "unit": "%"}, {"measurement": "Activity", "setting": "[9]", "value": 46, "unit": "%"}, {"measurement": "inhibition (INH)", "setting": "HGC-27 [10]", "value": 100, "unit": "%"}, {"measurement": "Activity", "setting": "[11]", "value": 105.3, "unit": "%"}, {"measurement": "inhibition", "setting": "HGC-27 [12]", "value": "Dose-Dependent Effect"}, {"measurement": "Activity", "setting": "HGC-27 [13]", "value": 23.9, "unit": "%"}, {"measurement": "Activity", "setting": "HGC-27 [14]", "value": 25.8, "unit": "%"}, {"measurement": "IC50 at 72 h", "setting": "[15]", "value": 14.5, "unit": "µM"}, {"measurement": "Emax", "setting": "[16]", "value": 73.7, "unit": "%"}, {"measurement": "Activity", "setting": "HGC-27 [17]", "value": 8.6, "unit": "%"}, {"measurement": "Activity", "setting": "HGC-27 [18]", "value": 27.9, "unit": "%"}, {"measurement": "Activity", "setting": "HGC-27 [19]", "value": 116}, {"measurement": "Activity", "setting": "HGC-27 [20]", "value": 36}, {"measurement": "Activity", "setting": "[21]", "value": "Active"}, {"measurement": "inhibition at 3.3 µM", "setting": "HGC-27 [22]", "value": 32.7, "unit": "%"}, {"measurement": "Activity", "setting": "HGC-27 [23]", "value": 0.96, "unit": "%"}, {"measurement": "Activity", "setting": "[24]", "value": 83, "unit": "%"}, {"measurement": "Activity", "setting": "[25]", "value": 91.3, "unit": "%"}, {"measurement": "Activity", "setting": "[26]", "value": "Dose-Dependent Effect"}, {"measurement": "EC50", "setting": "[26]", "value": 0.51, "unit": "µM"}, {"measurement": "Activity", "setting": "HGC-27 [27]", "value": 3.5, "unit": "%"}, {"measurement": "Activity", "setting": "HGC-27 [28]", "value": "Dose-Dependent Effect"}, {"measurement": "Activity", "setting": "[29]", "value": 33.3, "unit": "%"}, {"measurement": "Emax", "setting": "[30]", "value": 76.6, "unit": "%"}, {"measurement": "Activity", "setting": "HGC-27 [31]", "value": 21.2, "unit": "%"}, {"measurement": "Activity", "setting": "HGC-27 [32]", "value": 41.1, "unit": "%"}, {"measurement": "Activity", "setting": "HGC-27 [33]", "value": 18.2, "unit": "%"}, {"measurement": "inhibition", "setting": "HGC-27 [34]", "value": "Tde"}]}
